Experimental data reported in patent publication US20160030407A1, “Method of Treating Inflammatory Lung Disease” (priority 2010, published 2016).
Several values for one entry are separate records, joined by “and”; a condition that tells them apart may be missing. Identical values can stand only once.

Assays:
[1] = Brain extract concentrations after single i.v. bolus; format: in vivo, Sprague-Dawley rats; settings: for Concentration in rat brain extract: individual rats
Method: Six rats (3 males and 3 females) were dosed per dose group. […] Plasma and brain homogenates were stored at −80° C. until analysis.
An additional 48 rats (24 males and 24 females) received a single intravenous dose via the tail vein at the same doses as mentioned above. At 30 and 360 minutes post administration, 6 rats (3 males and 3 females) per dose group, per time point were euthanized, bled via cardiac puncture, and perfused, and brains were collected. The brains were homogenized. Blood was spun, and plasma was collected. Plasma and brain homogenate were stored at −80° C.
The animals were weighed prior to dosing and received a single i.v. dose of either test compound at a volume of 5 mL/kg. Blood was collected via the venus plexus (retro-orbital) into tubes containing (K2) EDTA. No more than 0.5 mL was collected per time point. […] The brain was removed, weighed, homogenized in sterile 0.9% saline at a volume equal to its weight, and stored at −80° C.
The amount of the test agent in the supernatant was determined by liquid chromatography tandem mass spectrometry (LC/MS/MS).
Analysis. Samples were analyzed by LC/MS/MS using an Agilent 6410 mass spectrometer coupled with an Agilent 1200 high pressure liquid chromatography (HPLC) and a CTC PAL chilled autosampler, all controlled by MassHunter software (Agilent). After separation on a hydrophilic interaction liquid chromatography (HILIC) HPLC column (Sepax) using an acetonitrile-ammonium acetate/acetic acid gradient system, peaks were analyzed by mass spectrometry (MS) using ESI ionization in multiple reaction monitoring (MRM) mode. MassHunter software was used to calculate the concentration of the test compounds in samples from the peak area using the appropriate calibration curves.

[2] = Single i.v. dose toxicity: necropsy observations and organ weights; format: in vivo, Sprague-Dawley rats
Method: (§1) Body weight and food consumption was measured daily for 14 days. On day 15, urine was collected on all surviving animals. The animals were euthanized and bled via cardiac puncture, and blood was collected for analysis. Tissues were collected, weighed, evaluated for gross abnormalities, and stored in 10% neutral-buffered formalin.
On day 15, urine was collected on all surviving animals for urinalysis. The animals were euthanized and bled via cardiac puncture. Blood was collected for hematology, clinical chemistry, and coagulation analysis. Tissues were collected, weighed, and stored in 10% neutral-buffered formalin for possible future analysis.

[3] = Treatment of a patient with autism and a seizure disorder; format: in vivo, human; settings: one patient, 1.0 mg three times per day
Description: A patient, who was diagnosed with autism and a seizure disorder, had brain surgery and began rehabilitation the following month.

[4] = tested on: phosphorylated p65 (NFκB); test: p65 phosphorylation in brain after intracranial TNFα; format: in vivo, mice (B6/SJL); settings: mice, 2 mg/kg i.p., normalized to actin
Method: After 5 minutes, mice were intracranially injected with 0.5 mg of TNFα. Mice were euthanized ten minutes after the intracranial injection. The portion of the brain surrounding the intracranial site of injection was collected, and proteins were extracted. Phosphorylation of p65 was measured with an antibody towards phosphorylated p65.

[5] = tested on: IL-1β; test: LPS-induced IL-1β release in whole human blood; format: cell-based
Method: Whole human blood was treated with LPS to stimulate inflammatory responses. […] The inflammatory molecule IL-1β was measured after 16 hours.

[6] = tested on: autoimmune thyroiditis; test: Autoimmune thyroiditis model (Example 16B): thyroid histopathology; format: in vivo, CBA/J mice; settings: 0.05 mg/ml in drinking water; day 21; p=0.023
Method: (§2) In another experiment, eighteen CBA/J female mice were immunized with mouse thyroglobulin, emulsified in complete Freund's adjuvant, on day 0 and day 7. One group of mice (n=10) drank regular water. […] Mice were sacrificed 21 days after the first immunization to collect the thyroid gland and the blood. The thyroid was analyzed for the presence of infiltrating mononuclear cells. The blood was analyzed for the levels of antibodies against thyroglobulin.

[7] = tested on: antibodies against thyroglobulin; test: Autoimmune thyroiditis model (Example 16B): thyroglobulin antibodies; format: in vivo, CBA/J mice; settings: 0.05 mg/ml in drinking water; day 21
Method: as §2

[8] = Single i.v. dose toxicity, 14-day observation: general observations and mortality (incl. nicotine tolerability study); format: in vivo, Sprague-Dawley rats
Method: as §1
The animals were weighed prior to dosing and received a single i.v. dose via the lateral tail vein of either test compound or vehicle at a volume of 5 mL/kg.
All animals were observed daily.

[9] = molecular target: nAChR α3/β4 (Homo sapiens, UniProt P30926+P32297); test: cell-based; settings: read-out: Normalized % Inhibition
Method: Briefly, cells were incubated with […] dye for 30 min at 37° C.

[10] = Group B: Anatabine 0.1 mg/kg (Females), individual animals
[11] = Group B: Anatabine 0.1 mg/kg (Males), individual animals
[12] = Group C: Anatabine 0.75 mg/kg (Females), individual animals
[13] = Group C: Anatabine 0.75 mg/kg (Males), individual animals
[14] = female animals, Anatabine 0.1 mg/kg, n = 5
[15] = female animals, Anatabine 0.75 mg/kg, n = 5
[16] = male rats, single i.v. 0.1 mg/kg, day 15
[17] = male rats, single i.v. 0.75 mg/kg anatabine, day 15
[18] = Group E: Nicotine 0.75 mg/kg (Females), individual animals, tartrate
[19] = Group E: Nicotine 0.75 g/kg Males), individual animals, tartrate
[20] = female animals, Nicotine 0.75 mg/kg, n = 3
[21] = male rats, single i.v. 0.75 mg/kg nicotine, day 15

Sequence of nAChR α3/β4 (P32297 32-505): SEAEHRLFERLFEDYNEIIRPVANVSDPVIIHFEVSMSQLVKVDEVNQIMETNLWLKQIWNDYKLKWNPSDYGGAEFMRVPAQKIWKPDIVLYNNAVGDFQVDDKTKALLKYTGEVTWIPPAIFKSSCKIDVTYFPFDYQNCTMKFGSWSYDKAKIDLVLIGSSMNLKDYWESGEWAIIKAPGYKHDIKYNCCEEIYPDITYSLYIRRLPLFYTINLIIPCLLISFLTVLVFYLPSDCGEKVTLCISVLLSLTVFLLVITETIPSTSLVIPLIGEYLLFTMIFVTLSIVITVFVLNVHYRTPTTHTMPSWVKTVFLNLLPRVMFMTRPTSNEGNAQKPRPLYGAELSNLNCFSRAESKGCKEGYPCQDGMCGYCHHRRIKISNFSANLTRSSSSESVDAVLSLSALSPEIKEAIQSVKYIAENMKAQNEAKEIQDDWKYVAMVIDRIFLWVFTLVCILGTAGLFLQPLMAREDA
Sequence of nAChR α3/β4 (P30926 22-498): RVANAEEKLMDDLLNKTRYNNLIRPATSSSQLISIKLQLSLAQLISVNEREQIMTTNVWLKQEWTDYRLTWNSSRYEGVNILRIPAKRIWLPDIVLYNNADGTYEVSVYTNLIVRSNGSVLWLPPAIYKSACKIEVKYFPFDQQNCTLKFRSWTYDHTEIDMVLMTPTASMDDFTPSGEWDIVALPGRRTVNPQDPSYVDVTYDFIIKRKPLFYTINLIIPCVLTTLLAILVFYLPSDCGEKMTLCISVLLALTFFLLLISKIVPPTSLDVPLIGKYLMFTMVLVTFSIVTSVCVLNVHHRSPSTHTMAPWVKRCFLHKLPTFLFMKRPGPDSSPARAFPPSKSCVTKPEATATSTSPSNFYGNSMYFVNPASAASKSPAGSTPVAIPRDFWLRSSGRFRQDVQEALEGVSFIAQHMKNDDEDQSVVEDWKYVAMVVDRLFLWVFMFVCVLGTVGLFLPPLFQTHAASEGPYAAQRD

C1=CCC(c2cccnc2)NC1 (racemic) [Anatabine, 1,2,3,6-tetrahydro-[2,3′]bipyridinyl]
Concentration in rat brain extract ([1]; Anatabine 0.1 mg/kg dose group, time point 0.5 hr): <LLQ
Concentration in rat brain extract ([1]; Anatabine 0.1 mg/kg dose group, time point 6 hr): <LLQ
Concentration in rat brain extract ([1]; Anatabine 0.1 mg/kg dose group, time point 24 hr): <LLQ
Concentration in rat brain extract ([1]; Anatabine 0.75 mg/kg dose group, time point 24 hr): <LLQ
Concentration in rat brain extract ([1]; Anatabine 1.0 mg/kg dose group, time point 6 hr): <LLQ
Concentration in rat brain extract ([1]; Anatabine 1.0 mg/kg dose group, time point 24 hr): <LLQ
Avg. Conc. (Combined Male and Female) ([1]; Rat Brain, Anatabine 0.75 mg/kg, combined, 24 hr): <LLQ
Avg. Conc. (Male or Female) ([1]; Rat Brain, Anatabine 0.75 mg/kg, female, 24 hr): <LLQ
Avg. Conc. (Male or Female) ([1]; Rat Brain, Anatabine 0.75 mg/kg, male, 24 hr): <LLQ
Avg. Conc. (Male or Female) ([1]; Rat Brain, Anatabine 1.0 mg/kg, female, 24 hr): <LLQ
appearance in brain tissue ([1]; rat, following i.v. administration): rapidly appear in brain tissue
Mean concentration in rat brain extracts ([1]; single i.v. 0.75 mg/kg, female, 24 hr): <LLQ
Mean concentration in rat brain extracts ([1]; single i.v. 0.75 mg/kg, male, 24 hr): <LLQ
Mean concentration in rat brain extracts ([1]; single i.v. 1.0 mg/kg, female, 24 hr): <LLQ
Tissue Collection Weights: Heart [2, 10]: 0.95 g
Tissue Collection Weights: Ovaries/uterus [2, 10]: 0.96 g and 0.84 g and 0.70 g
Tissue Collection Weights: Small intestine [2, 10]: 0.87 g and 0.71 g and 0.55 g and 0.49 g and 0.63 g
Tissue Collection Weights: Spleen [2, 10]: 0.79 g and 0.62 g and 0.51 g and 0.67 g and 0.65 g
Tissue Collection Weights: Thymus [2, 10]: 0.68 g and 0.59 g and 0.49 g and 0.71 g and 0.73 g
Tissue Collection Weights: Heart [2, 11]: 1.60 g
Tissue Collection Weights: Kidneys [2, 11]: 3.70 g
Tissue Collection Weights: Prostate [2, 11]: 0.72 g and 0.49 g and 0.73 g and 0.53 g and 0.48 g
Tissue Collection Weights: Small intestine [2, 11]: 0.61 g and 0.96 g and 0.88 g and 0.50 g and 0.35 g
Tissue Collection Weights: Spleen [2, 11]: 0.91 g and 0.66 g and 0.82 g and 0.93 g and 0.76 g
Tissue Collection Weights: Thymus [2, 11]: 0.74 g (2×) and 0.76 g and 0.71 g and 0.81 g
Tissue Collection Weights: Brain [2, 12]: 1.93 g
Tissue Collection Weights: Heart [2, 12]: 0.99 g
Tissue Collection Weights: Kidneys [2, 12]: 2.20 g
Tissue Collection Weights: Lungs [2, 12]: 1.30 g
Tissue Collection Weights: Ovaries/uterus [2, 12]: 0.81 g and 1.50 g and 0.72 g
Tissue Collection Weights: Small intestine [2, 12]: 0.72 g and 0.37 g and 0.85 g and 0.47 g
Tissue Collection Weights: Spleen [2, 12]: 0.70 g and 0.65 g (2×) and 0.51 g and 0.49 g
Tissue Collection Weights: Thymus [2, 12]: 0.56 g and 0.53 g and 0.63 g and 0.52 g and 0.54 g
Tissue Collection Weights: Brain [2, 13]: 2.00 g
Tissue Collection Weights: Prostate [2, 13]: 0.49 g (2×) and 0.65 g and 0.46 g and 0.45 g
Tissue Collection Weights: Small intestine [2, 13]: 0.54 g and 0.56 g and 0.41 g and 0.47 g
Tissue Collection Weights: Spleen [2, 13]: 0.71 g and 0.63 g and 0.79 g and 0.93 g and 0.64 g
Tissue Collection Weights: Testes [2, 13]: 2.70 g
Tissue Collection Weights: Thymus [2, 13]: 0.52 g and 0.67 g and 0.69 g and 0.47 g
Organ Weight Brain, Mean [2, 14]: 1.86 g
Organ Weight Heart, Mean [2, 14]: 1.13 g
Organ Weight Liver, Mean [2, 14]: 10.84 g
Organ Weight Lungs, Mean [2, 14]: 1.41 g
Organ Weight Ovaries/uteris, Mean [2, 14]: 1.14 g
Organ Weight, Small intestine (mean) [2, 14]: 0.65 g
Organ Weight, Spleen (mean) [2, 14]: 0.65 g
Organ Weight, Thymus (mean) [2, 14]: 0.64 g
Organ Weight Brain, Mean [2, 15]: 1.90 g
Organ Weight Heart, Mean [2, 15]: 1.11 g
Organ Weight Kidneys, Mean [2, 15]: 2.30 g
Organ Weight Liver, Mean [2, 15]: 10.42 g
Organ Weight Lungs, Mean [2, 15]: 1.45 g
Organ Weight Ovaries/uteris, Mean [2, 15]: 1.58 g
Organ Weight, Small intestine (mean) [2, 15]: 0.75 g
Organ Weight, Spleen (mean) [2, 15]: 0.60 g
Organ Weight, Thymus (mean) [2, 15]: 0.56 g
Organ Weight, Prostate (mean) [2, 16]: 0.59 g
Organ Weight, Small intestine (mean) [2, 16]: 0.66 g
Organ Weight, Spleen (mean) [2, 16]: 0.82 g
Organ Weight, Thymus (mean) [2, 16]: 0.75 g
Organ Weight, Prostate (mean) [2, 17]: 0.51 g
Organ Weight, Small intestine (mean) [2, 17]: 0.68 g
Organ Weight, Spleen (mean) [2, 17]: 0.74 g
Organ Weight, Thymus (mean) [2, 17]: 0.67 g
cognitive benefits [3]: improved communication and language skills and the ability to focus
frequency of seizures ([3]; over 3 weeks): decreased from one per day to approximately one per week
p65 phosphorylation in brain [4]: reduced p65 phosphorylation in mouse brain
IL-1β production over time ([5]; whole human blood + LPS (Example 15)): rapid and continuous effect on the suppression
accumulation of IL-1β ([5]; whole human blood + LPS, 16 hours (Example 13)): reduced accumulation of IL-1β
IL-1β, area under the dose-response curve ([5]; whole human blood + LPS, 16 hours (Example 14)): reduced accumulation of IL-1β
frequency and severity of thyroiditis [6]: developed thyroiditis less frequently and of lower severity
levels of thyroglobulin antibodies [7]: no effect on the levels of thyroglobulin antibodies

CN1CCCC1c1cccnc1.O=C(O)C(O)C(O)C(=O)O (single isomer, unassigned; (-)) [Nicotine, (−) Nicotine hydrogen tartrate, reference compound]
time until return to normal, tolerability study ([8]; female rats, nicotine 1.25 and 1.0 mg/kg i.v., post dose): ≤ 20 min
observations after dosing, tolerability study ([8]; female rats, single i.v. nicotine 1.25 mg/kg (1) and 1.0 mg/kg (3)): experienced severe tremors upon completion of dosing
time until return to normal ([8]; rat, nicotine 0.75 mg/kg i.v., post dose): 15 to 20 min
observations after dosing ([8]; rat, single i.v. 0.75 mg/kg nicotine): experienced tremors upon compound administration
mortality ([8]; rat, single i.v. 0.75 mg/kg nicotine (5 males, 5 females)): One male and two females died post dose
Tissue Collection Weights: Heart [2, 18]: 0.83 g
Tissue Collection Weights: Lungs [2, 18]: 1.20 g
Tissue Collection Weights: Ovaries/uterus [2, 18]: 0.92 g
Tissue Collection Weights: Small intestine [2, 18]: 0.41 g and 0.40 g and 0.28 g
Tissue Collection Weights: Spleen [2, 18]: 0.46 g (2×) and 0.76 g
Tissue Collection Weights: Thymus [2, 18]: 0.54 g and 0.48 g (2×)
Tissue Collection Weights: Brain [2, 19]: 1.90 g
Tissue Collection Weights: Heart [2, 19]: 1.20 g
Tissue Collection Weights: Prostate [2, 19]: 0.41 g and 0.28 g (2×) and 0.45 g
Tissue Collection Weights: Small intestine [2, 19]: 0.71 g and 0.56 g and 0.53 g and 0.40 g
Tissue Collection Weights: Spleen [2, 19]: 0.81 g and 0.62 g and 0.78 g and 0.86 g
Tissue Collection Weights: Thymus [2, 19]: 0.54 g and 0.46 g and 0.56 g and 0.76 g
Organ Weight Brain, Mean [2, 20]: 1.86 g
Organ Weight Heart, Mean [2, 20]: 0.99 g
Organ Weight Kidneys, Mean [2, 20]: 2.31 g
Organ Weight Liver, Mean [2, 20]: 9.59 g
Organ Weight Lungs, Mean [2, 20]: 1.32 g
Organ Weight Ovaries/uteris, Mean [2, 20]: 1.28 g
Organ Weight, Small intestine (mean) [2, 20]: 0.36 g
Organ Weight, Spleen (mean) [2, 20]: 0.56 g
Organ Weight, Thymus (mean) [2, 20]: 0.50 g
Organ Weight, Prostate (mean) [2, 21]: 0.36 g
Organ Weight, Small intestine (mean) [2, 21]: 0.55 g
Organ Weight, Spleen (mean) [2, 21]: 0.77 g
Organ Weight, Thymus (mean) [2, 21]: 0.58 g
organ weights vs vehicle controls ([2]; nicotine 0.75 mg/kg, heart, liver and kidneys in males, thymus and heart in females): significantly lower than those of the corresponding vehicle controls
inhibition at 0.3 µM [9]: 19.1%
inhibition at 1 µM [9]: 19%
inhibition at 10 µM [9]: 95.8%
inhibition at 30 µM [9]: 139%
inhibition at 100 µM [9]: 145%
inhibition at 300 µM [9]: 144%
inhibition at 1000 µM [9]: 142%
